± gives the expanded uncertainty stated by the source.
Test: xn = mol fraction of the nth substance listed
Conditions: 101 kPa, Liquid; for speed of sound: Pulse-echo method

Cc1ccc(Cl)cc1 [4-chlorotoluene] + CCCCCCCCCCO
Conditions	mass density, 303.15 K [kg/m3]	mass density, 308.15 K [kg/m3]	speed of sound, 303.15 K [m/s]	speed of sound, 308.15 K [m/s]	viscosity, 303.15 K [mPa·s]	viscosity, 308.15 K [mPa·s]
x1 = 0.0718	834.11 ± 0.42	830.35 ± 0.42	1357.3 ± 1.3	1338.2 ± 1.3	8.053 ± 0.081	6.713 ± 0.07
x1 = 0.1353	844.43 ± 0.4	840.48 ± 0.41	1350.1 ± 1.3	1330.8 ± 1.3	6.766 ± 0.07	5.652 ± 0.061
x1 = 0.1976	854.95 ± 0.39	850.84 ± 0.39	1342.7 ± 1.3	1323.1 ± 1.3	5.705 ± 0.061	4.769 ± 0.053
x1 = 0.2703	867.83 ± 0.37	863.56 ± 0.37	1333.7 ± 1.3	1313.8 ± 1.3	4.658 ± 0.052	3.909 ± 0.044
x1 = 0.341	881.03 ± 0.35	876.62 ± 0.35	1324.7 ± 1.3	1304.8 ± 1.3	3.825 ± 0.043	3.23 ± 0.037
x1 = 0.4103	894.71 ± 0.33	890.19 ± 0.33	1315.9 ± 1.3	1295.9 ± 1.3	3.162 ± 0.036	2.678 ± 0.031
x1 = 0.482	909.75 ± 0.3	905.12 ± 0.31	1307 ± 1.3	1286.9 ± 1.3	2.608 ± 0.03	2.224 ± 0.026
x1 = 0.5531	925.66 ± 0.28	920.91 ± 0.29	1298.4 ± 1.2	1278.3 ± 1.2	2.157 ± 0.025	1.851 ± 0.022
x1 = 0.6234	942.5 ± 0.26	937.62 ± 0.26	1290.5 ± 1.2	1270.5 ± 1.2	1.798 ± 0.021	1.558 ± 0.019
x1 = 0.7045	963.53 ± 0.23	958.46 ± 0.23	1282.3 ± 1.2	1262.5 ± 1.2	1.472 ± 0.018	1.289 ± 0.016
x1 = 0.7497	976.09 ± 0.21	970.92 ± 0.22	1278.3 ± 1.2	1258.5 ± 1.2	1.325 ± 0.016	1.166 ± 0.014
x1 = 0.8196	996.85 ± 0.18	991.5 ± 0.19	1273 ± 1.2	1253.9 ± 1.2	1.134 ± 0.014	1.008 ± 0.013
x1 = 0.8907	1019.78 ± 0.21	1014.28 ± 0.2	1269.5 ± 1.2	1250.7 ± 1.2	0.972 ± 0.013	0.875 ± 0.012
x1 = 0.9556	1042.69 ± 0.24	1037.1 ± 0.23	1269.1 ± 1.2	1251 ± 1.2	0.85 ± 0.012	0.781 ± 0.011
x1 = 1	1059.51 ± 0.26	1053.9 ± 0.25	1271 ± 1.2	1253.1 ± 1.2	0.784 ± 0.011	0.73 ± 0.011
